Read-outs that look alike come from different tables or passages of the source.
Tested on: patients with advanced solid tumors
[1] = 30 mg BID 14d-on/14d-off (N = 7)
[2] = 40 mg BID 14d-on/14d-off (N = 4)
[3] = 50 mg BID 14d-on/14d-off (N = 4)
[4] = 65 mg BID 14d-on/14d-off (N = 6)

Protocol: The study consisted of a dose-escalation part followed by an expansion part. In the dose escalation part, a 3-day pharmacokinetic (PK) lead-in period was conducted for a single dose in the first treatment cycle. Patients received GFH018 once on cycle 1 day 1 (C1D1) and underwent serial PK testing over the first 3 days. On C1D4, patients were administered the corresponding dose of GFH018 BID 14 days on/14 days off. The first cycle was defined as 31 days, including 3-day PK leading-in period with GFH018 single dosing and then 14d-on/14d-off dosing schedule. The subsequent cycles were 28 days. The starting dose of GFH018 was 5 mg, with eight planned dose levels up to 85 mg (5, 10, 20, 30, 40, 50, 65, and 85 mg). A modified 3+3 design was used to determine the maximum tolerance dose (MTD) and RDE, guided by safety/tolerability and PK data. Dose-limiting toxicities (DLTs) were evaluated during the first cycle at each dose level. The safety of 85 mg BID, 7 d-on/7 d-off, was explored after confirming the safety of 14 d-on/14 d-off. The DLTs were defined as hematological toxicities, including G4 neutropenia lasting for more than 5 days, G3 febrile neutropenia, G4 anemia, G4 thrombocytopenia, or G3 thrombocytopenia accompanied by bleeding, and ≥ G3 nonhematological toxicity (except for diarrhea, nausea, vomiting, and rash recovering ≤ G2 after supportive treatment within 3 days). The DLTs for cardiac toxicities included ≥ G2 cardiac valve abnormalities, ≥ G2 left ventricular ejection fraction (LVEF) decrease, any cardiovascular impairment shown in imaging, and abnormal highly sensitive troponin (hs-Tn) increased to ≥ twice the baseline in two consecutive tests with an interval ≥ 3 days. In the expansion part, patients were orally administered GFH018 RDE twice daily to further evaluate the safety of RDE and other dose regimens. […] The treatment cycle lasted 28 days.
All enrolled patients were monitored regularly after GFH018 administration. Safety assessments included adverse events (AEs), serious AEs (SAEs), laboratory assessments, vital signs, physical examinations, electrocardiography and echocardiography. AEs were graded according to the NCI Common Terminology Criteria for Adverse Events (NCI-CTCAE) v5.0. All AEs were followed up until they were stable or had recovered to baseline. Adverse events of special interest (AESIs) were predefined as echocardiographic abnormalities such as aggravated stenosis or regurgitation of the heart valves, clinically significant decreases in LVEF, brain natriuretic peptide (BNP) or N-terminal pro-brain natriuretic peptide (NT-proBNP) increases, and hs-Tn increases judged by investigators.
For the safety and efficacy analyses, data from patients who received GFH018 at the same dose in the dose-escalation and expansion cohorts were pooled. The demographic and baseline characteristics were summarized using descriptive methods. Safety and efficacy data were summarized for all patients who received at least one dose of GFH018. The ORR and DCR were summarized by cohort and overall. When the sample size of the analyzed group was ten or more, the Kaplan–Meier method was used to estimate the median PFS and TTP. In this study, treatment-emergent AEs (TEAEs) were defined as AEs that occurred on or after the first dosing date of GFH018 and no later than 30 days after the last dose of GFH018. The incidence and severity of AEs were descriptively summarized according to dose level. The PK parameters of GFH018 were calculated using noncompartmental analysis methods. All plasma PK data were summarized by cohort and visit day or time using descriptive statistics.

Cc1cccc(-c2nn3c(c2-c2ccc4ncnn4c2/C=C/C(N)=O)CCC3)n1 [GFH018]
4 (100%) n (%): At least one TEAE [2] | At least one TRAE [2] | At least one TEAE [3]
0 n (%): TEAE: Urine protein present [1] | TEAE: White blood cell count decreased [1] | TEAE: White blood cells urine positive [1] | TRAE: ALP increased [1] | TRAE: Anemia [1] | TRAE: GGT increased [1] | TRAE: Protein urine present [1] | Treatment-emergent Proteinuria (grouped PTs), G3 [1] | TEAE: ALT increased [2] | TEAE: AST increased [2] | TEAE: Abdominal distention [2] | TEAE: Abdominal pain [2] | TEAE: Bilirubin conjugated increased [2] | TEAE: Blood albumin decreased [2] | TEAE: Blood bilirubin increased [2] | TEAE: C-reactive protein increased [2] | TEAE: Constipation [2] | TEAE: Decreased appetite [2] | TEAE: GGT increased [2] | TEAE: Hypoalbuminemia [2] | TEAE: Lymphocyte count decreased [2] | TEAE: Proteinuria [2] | TEAE: Urine protein present [2] | TEAE: White blood cell count decreased [2] | TEAE: White blood cells urine positive [2] | TRAE: ALT increased [2] | TRAE: AST increased [2] | TRAE: Anemia [2] | TRAE: GGT increased [2] | TRAE: Lymphocyte count decreased [2] | TRAE: Protein urine present [2] | TRAE: Proteinuria [2] | Treatment-emergent Proteinuria (grouped PTs), G1 [2] | Treatment-emergent Proteinuria (grouped PTs), G2 [2] | Treatment-emergent Proteinuria (grouped PTs), G3 [2] | Treatment-emergent Proteinuria (grouped PTs: proteinuria and urine protein present), any grade [2] | TEAE: Abdominal pain [3] | TEAE: Asthenia [3] | TEAE: Bilirubin conjugated increased [3] | TEAE: Blood albumin decreased [3] | TEAE: Blood bilirubin increased [3] | TEAE: C-reactive protein increased [3] | TEAE: Constipation [3] | TEAE: Hypoalbuminemia [3] | TEAE: LDH increased [3] | TEAE: Lymphocyte count decreased [3] | TEAE: Platelet count decreased [3] | TEAE: Proteinuria [3] | TEAE: White blood cell count decreased [3] | TEAE: White blood cells urine positive [3] | TRAE: Anemia [3] | TRAE: LDH increased [3] | TRAE: Lymphocyte count decreased [3] | TRAE: Proteinuria [3] | Treatment-emergent Proteinuria (grouped PTs), G2 [3] | Treatment-emergent Proteinuria (grouped PTs), G3 [3] | TEAE: ALP increased [4] | TEAE: ALT increased [4] | TEAE: Abdominal distention [4] | TEAE: Asthenia [4] | TEAE: Bilirubin conjugated increased [4] | TEAE: Blood albumin decreased [4] | TEAE: C-reactive protein increased [4] | TEAE: Hypoalbuminemia [4] | TEAE: LDH increased [4] | TEAE: Lymphocyte count decreased [4] | TRAE: ALP increased [4] | TRAE: ALT increased [4] | TRAE: GGT increased [4] | TRAE: LDH increased [4] | TRAE: Lymphocyte count decreased [4] | TRAE: Protein urine present [4] | Treatment-emergent Proteinuria (grouped PTs), G3 [4] | TEAE: ALT increased (85 mg BID 7d-on/7d-off (N = 6))
5 (83.3%) n (%): At least one TEAE [4] | At least one TRAE [4] | At least one TEAE (85 mg BID 7d-on/7d-off (N = 6)) | At least one TEAE (Table S3) (85 mg BID 7d-on/7d-off (N = 6))
2 (28.6%) n (%): TRAE: ALT increased [1] | TRAE: AST increased [1]
1 (14.3) n (%): Treatment-emergent Proteinuria (grouped PTs), G2 [1]
3 (42.9) n (%): Treatment-emergent Proteinuria (grouped PTs), G1 [1]
3 (75.0%) n (%): TEAE: Anemia [3]
1 (25.0%) n (%): TEAE: ALP increased [2] | TEAE: Anemia [2] | TEAE: Asthenia [2] | TEAE: LDH increased [2] | TEAE: Platelet count decreased [2] | TEAE: Sinus tachycardia [2] | TRAE: ALP increased [2] | TRAE: LDH increased [2] | TEAE: ALP increased [3] | TEAE: ALT increased [3] | TEAE: AST increased [3] | TEAE: Abdominal distention [3] | TEAE: Decreased appetite [3] | TEAE: GGT increased [3] | TEAE: Sinus tachycardia [3] | TEAE: Urine protein present [3] | TRAE: ALP increased [3] | TRAE: ALT increased [3] | TRAE: AST increased [3] | TRAE: GGT increased [3] | TRAE: Protein urine present [3]
1 (25.0) n (%): Treatment-emergent Proteinuria (grouped PTs), G1 [3] | Treatment-emergent Proteinuria (grouped PTs: proteinuria and urine protein present), any grade [3]
2 (33.3) n (%): Treatment-emergent Proteinuria (grouped PTs: proteinuria and urine protein present), any grade [4]
3 (42.9%) n (%): TRAE: Proteinuria [1]
2 (33.3%) n (%): TEAE: AST increased [4] | TEAE: Sinus tachycardia [4] | TEAE: White blood cell count decreased [4] | TRAE: AST increased [4] | TRAE: Anemia [4]
1 (16.7) n (%): Treatment-emergent Proteinuria (grouped PTs), G1 [4] | Treatment-emergent Proteinuria (grouped PTs), G2 [4]
4 (57.1) n (%): Treatment-emergent Proteinuria (grouped PTs: proteinuria and urine protein present), any grade [1]
2 (50.0%) n (%): At least one TRAE [3]
1 (16.7%) n (%): TEAE: Abdominal pain [4] | TEAE: Blood bilirubin increased [4] | TEAE: Constipation [4] | TEAE: Decreased appetite [4] | TEAE: GGT increased [4] | TEAE: Platelet count decreased [4] | TEAE: Proteinuria [4] | TEAE: Urine protein present [4] | TEAE: White blood cells urine positive [4] | TRAE: Proteinuria [4] | TEAE: ALP increased (85 mg BID 7d-on/7d-off (N = 6))
not significantly different: safety profile of 7 d-on/7 d-off versus 14 d-on/14 d-off regimen (85 mg BID)
3 (50.0%) n (%): TEAE: Anemia [4] | At least one TRAE (85 mg BID 7d-on/7d-off (N = 6))
1 (14.3%) n (%): TRAE: LDH increased [1] | TRAE: Lymphocyte count decreased [1]
